# Values of other authors in patent US7341836B2, “Modified cyclic nucleotide gated ion channels” (The Regents of the University of Colorado, priority 2001, dated 2008).
# Key:
# PDE X = molecular target: T1, PDE X (Mus musculus, UniProt Q8CA95); details: cited from earlier work
# T1 construct: host or cells: heterologously expressed
# T1 sequence (Q8CA95 1-790): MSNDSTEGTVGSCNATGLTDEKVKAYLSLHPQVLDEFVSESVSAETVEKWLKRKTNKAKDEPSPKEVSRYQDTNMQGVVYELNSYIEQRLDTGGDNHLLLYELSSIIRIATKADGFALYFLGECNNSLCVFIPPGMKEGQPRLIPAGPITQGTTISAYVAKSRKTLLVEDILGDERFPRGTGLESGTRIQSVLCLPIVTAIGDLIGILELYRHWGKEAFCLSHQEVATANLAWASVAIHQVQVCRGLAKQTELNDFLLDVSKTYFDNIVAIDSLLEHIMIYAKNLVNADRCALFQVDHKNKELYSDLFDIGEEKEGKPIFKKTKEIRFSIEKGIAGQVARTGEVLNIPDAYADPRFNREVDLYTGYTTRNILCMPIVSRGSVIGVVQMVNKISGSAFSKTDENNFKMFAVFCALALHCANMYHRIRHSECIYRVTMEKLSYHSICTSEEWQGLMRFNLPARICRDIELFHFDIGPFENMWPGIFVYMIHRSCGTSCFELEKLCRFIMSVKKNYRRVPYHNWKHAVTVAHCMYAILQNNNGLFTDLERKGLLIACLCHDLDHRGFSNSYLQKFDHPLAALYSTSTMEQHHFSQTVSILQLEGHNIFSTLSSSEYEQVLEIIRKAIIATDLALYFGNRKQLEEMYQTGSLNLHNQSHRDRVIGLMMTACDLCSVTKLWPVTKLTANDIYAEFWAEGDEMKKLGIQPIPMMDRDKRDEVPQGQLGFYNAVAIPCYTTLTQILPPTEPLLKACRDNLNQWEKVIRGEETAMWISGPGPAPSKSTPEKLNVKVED
# PDE IX = molecular target: T2, PDE IX (UniProt O70628); details: read-out: IC50, PDE IX; cited from earlier work
# T2 sequence (O70628 1-534): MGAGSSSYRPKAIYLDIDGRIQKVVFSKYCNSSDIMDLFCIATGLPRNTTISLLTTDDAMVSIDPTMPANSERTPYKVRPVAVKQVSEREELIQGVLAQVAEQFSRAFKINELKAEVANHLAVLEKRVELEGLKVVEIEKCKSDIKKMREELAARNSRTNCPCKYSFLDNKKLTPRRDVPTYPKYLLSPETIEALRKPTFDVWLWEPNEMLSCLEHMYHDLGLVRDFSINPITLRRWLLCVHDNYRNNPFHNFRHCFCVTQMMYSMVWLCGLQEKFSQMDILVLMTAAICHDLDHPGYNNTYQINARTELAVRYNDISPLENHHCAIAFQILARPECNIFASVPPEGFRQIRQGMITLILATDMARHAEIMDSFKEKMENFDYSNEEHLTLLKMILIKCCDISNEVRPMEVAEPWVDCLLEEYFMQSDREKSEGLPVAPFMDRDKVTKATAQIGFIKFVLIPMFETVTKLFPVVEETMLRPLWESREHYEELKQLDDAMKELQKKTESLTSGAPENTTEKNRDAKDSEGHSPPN
compound,measurement,setting,value
CCCCCC[C@@H]([C@@H](C)O)n1cnc2c(N)ncnc21 (racemic) [EHNA],IC50,PDE X,69 µM
same,IC50,PDE IX,> 100 µM
COc1ccc(C2CNC(=O)C2)cc1OC1CCCC1 (stereo not drawn) [Rolipram],IC50,PDE X,47 µM
same,IC50,PDE IX,> 200 µM
"CC(C)Cn1c(=O)n(C)c(=O)c2[nH]cnc21 [IBMX, 3-isobutyl-1-methylxanthine]",IC50,PDE X,2.6 µM
same,IC50,PDE IX,> 200 µM
